From the supplement of paper PMC10883282
± gives the standard deviation of the averaged measurements.

Tested on: HS729
Experiment: relative viability vs DMSO control (72 h) (fraction); higher = more viable cells
Method in brief: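 Densities for seeding sarcoma cell lines into 384-well plates were set to give 80–90% confluence. After 24 h, 2.5 µl of serially diluted compound from source plates of 10 mM to 0.0002 mM went in, and plates stayed 72 h at 37 °C in 5% CO2 with 0.1% DMSO vehicle and a 5 µM positive control. Percent growth from ATPLite readings, averaged over up to triplicate wells, served as relative viability, rescaled so 1 means full and 0 means none.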

| SMILES | relative viability (0.00017 µM) | relative viability (0.00051 µM) | relative viability (0.00152 µM) | relative viability (0.00457 µM) | relative viability (0.01372 µM) | relative viability (0.04115 µM) | relative viability (0.1235 µM) | relative viability (0.3704 µM) | relative viability (1.111 µM) | relative viability (3.333 µM) | relative viability (10 µM) |
| --- | --- | --- | --- | --- | --- | --- | --- | --- | --- | --- | --- |
| C=CC(=O)Nc1cccc(Oc2nc(Nc3ccc(N4CCN(C)CC4)cc3)nc3ccsc23)c1 [Olmutinib] | 1.02 ± 0.095 | 1.03 ± 0.1 | 0.996 ± 0.094 | 0.988 ± 0.07 | 0.922 ± 0.05 | 0.968 ± 0.11 | 0.958 ± 0.093 | 0.904 ± 0.097 | 0.925 ± 0.079 | 0.887 ± 0.051 | 0.713 ± 0.059 |
| COc1cc2c(Oc3ccc4[nH]c(C)cc4c3F)ncnc2cc1OCCCN1CCCC1 [Cediranib] | 0.964 ± 0.077 | 0.991 ± 0.077 | 0.954 ± 0.044 | 0.962 ± 0.086 | 0.991 ± 0.045 | 0.968 ± 0.057 | 0.94 ± 0.059 | 0.8 ± 0.1 | 0.665 ± 0.039 | 0.834 ± 0.024 | 0.83 ± 0.026 |
| Cc1cnc(Nc2ccc(OCCN3CCCC3)cc2)nc1Nc1cccc(S(=O)(=O)NC(C)(C)C)c1 [Fedratinib] | 1.03 ± 0.038 | 0.948 ± 0.033 | 0.99 ± 0.02 | 0.928 ± 0.047 | 0.924 ± 0.05 | 0.888 ± 0.021 | 0.805 ± 0.033 | 0.649 ± 0.026 | 0.497 ± 0.0061 | 0.263 ± 0.025 | 0.0101 ± 0.0019 |
| CCCS(=O)(=O)Nc1ccc(F)c(C(=O)c2c[nH]c3ncc(-c4ccc(Cl)cc4)cc23)c1F [Vemurafenib] | 0.9411 ± 0.0078 | 0.97 ± 0.024 | 0.949 ± 0.051 | 0.949 ± 0.05 | 0.962 ± 0.021 | 0.915 ± 0.03 | 0.955 ± 0.031 | 0.908 ± 0.013 | 0.9276 ± 0.0087 | 0.856 ± 0.065 | 0.73 ± 0.016 |
| Cn1cnc2c(F)c(Nc3ccc(Br)cc3F)c(C(=O)NOCCO)cc21 [Binimetinib] | 1.07 ± 0.013 | 1.05 ± 0.063 | 1.06 ± 0.12 | 1.01 ± 0.077 | 0.986 ± 0.035 | 0.933 ± 0.052 | 0.898 ± 0.019 | 0.906 ± 0.023 | 0.906 ± 0.046 | 0.856 ± 0.013 | 0.811 ± 0.012 |
| COc1c(OCCCN2CCOCC2)ccc2c1N=C(NC(=O)c1cnc(N)nc1)N1CCN=C21 [Copanlisib] | 1.05 ± 0.04 | 0.906 ± 0.03 | 0.919 ± 0.027 | 0.701 ± 0.12 | 0.688 ± 0.028 | 0.6016 ± 0.0023 | 0.483 ± 0.028 | 0.439 ± 0.045 | 0.324 ± 0.035 | 0.306 ± 0.022 | 0.255 ± 0.015 |
| COc1cc2nccc(Oc3ccc(NC(=O)Nc4cc(C)on4)c(Cl)c3)c2cc1OC [Tivozanib] | 0.898 ± 0.058 | 0.883 ± 0.018 | 0.9572 ± 0.0089 | 0.923 ± 0.046 | 0.921 ± 0.052 | 0.882 ± 0.017 | 0.869 ± 0.043 | 0.891 ± 0.044 | 0.894 ± 0.05 | 0.817 ± 0.0084 | 0.722 ± 0.02 |
| CC[C@H](Nc1ncnc2[nH]cnc12)c1nc2cccc(F)c2c(=O)n1-c1ccccc1 [Idelalisib] | 1.07 ± 0.061 | 1.07 ± 0.073 | 1.03 ± 0.055 | 1.05 ± 0.023 | 1.01 ± 0.038 | 0.987 ± 0.018 | 0.947 ± 0.049 | 0.919 ± 0.035 | 0.905 ± 0.05 | 0.843 ± 0.036 | 0.704 ± 0.011 |
| Cc1cc(C)c(/C=C2\C(=O)Nc3ccccc32)[nH]1 [Semaxanib] | 0.893 ± 0.093 | 0.895 ± 0.11 | 0.895 ± 0.074 | 0.889 ± 0.093 | 0.871 ± 0.086 | 0.883 ± 0.097 | 0.853 ± 0.078 | 0.821 ± 0.069 | 0.762 ± 0.07 | 0.747 ± 0.057 | 0.613 ± 0.036 |
| Cc1ccc(F)c(NC(=O)Nc2ccc(-c3cccc4[nH]nc(N)c34)cc2)c1 [Linifanib] | 1.02 ± 0.065 | 0.958 ± 0.072 | 0.937 ± 0.052 | 0.943 ± 0.077 | 0.958 ± 0.052 | 0.896 ± 0.033 | 0.83 ± 0.033 | 0.783 ± 0.018 | 0.7353 ± 0.0054 | 0.762 ± 0.049 | 0.689 ± 0.055 |
| COCc1c(-c2cc3cc(C)cc(OC)c3s2)c2c(N)ncnn2c1CN1CCNC(=O)C1 [Rogaratinib] | 1.06 ± 0.024 | 0.957 ± 0.068 | 0.967 ± 0.036 | 0.91 ± 0.052 | 0.92 ± 0.11 | 0.882 ± 0.034 | 0.755 ± 0.041 | 0.645 ± 0.037 | 0.582 ± 0.039 | 0.485 ± 0.031 | 0.348 ± 0.024 |
| N#CC[C@H](C1CCCC1)n1cc(-c2ncnc3[nH]ccc23)cn1 [Ruxolitinib] | 1.07 ± 0.028 | 1.07 ± 0.028 | 1.06 ± 0.028 | 1.05 ± 0.027 | 1.02 ± 0.068 | 1.06 ± 0.031 | 1.01 ± 0.031 | 0.989 ± 0.035 | 0.938 ± 0.086 | 0.894 ± 0.1 | 0.764 ± 0.041 |
| CCN1CCN(Cc2ccc(Nc3ncc(F)c(-c4cc(F)c5nc(C)n(C(C)C)c5c4)n3)nc2)CC1 [Abemaciclib] | 0.912 ± 0.041 | 0.923 ± 0.014 | 0.892 ± 0.057 | 0.862 ± 0.033 | 0.9097 ± 0.0087 | 0.865 ± 0.029 | 0.818 ± 0.029 | 0.854 ± 0.087 | 0.873 ± 0.025 | 0.886 ± 0.021 | 0.885 ± 0.011 |
| CNC(=O)c1cc(Oc2ccc(NC(=O)Nc3ccc(Cl)c(C(F)(F)F)c3)c(F)c2)ccn1 [Regorafenib] | 1.08 ± 0.027 | 1.07 ± 0.04 | 1.03 ± 0.048 | 1.02 ± 0.046 | 0.945 ± 0.093 | 0.9469 ± 0.0076 | 0.98 ± 0.069 | 0.845 ± 0.014 | 0.824 ± 0.039 | 0.809 ± 0.014 | 0.651 ± 0.014 |
| Nc1cc(C(F)(F)F)c(-c2cc(N3CCOCC3)nc(N3CCOCC3)n2)cn1 [Buparlisib] | 0.937 ± 0.034 | 0.95 ± 0.015 | 0.936 ± 0.046 | 0.906 ± 0.083 | 0.902 ± 0.062 | 0.89 ± 0.012 | 0.812 ± 0.052 | 0.702 ± 0.059 | 0.568 ± 0.053 | 0.327 ± 0.023 | 0.274 ± 0.026 |
| CC(C)NC(=O)C1CCC(n2c(NC(=O)c3ccc(F)cc3)nc3ccc(CN4CCC(C(C)(C)O)CC4)cc32)CC1 (stereo not drawn) [Belizatinib] | 0.93 ± 0.018 | 0.952 ± 0.042 | 0.967 ± 0.057 | 0.945 ± 0.027 | 0.949 ± 0.061 | 0.9059 ± 0.0065 | 0.836 ± 0.043 | 0.695 ± 0.041 | 0.602 ± 0.04 | 0.526 ± 0.02 | 0.42 ± 0.053 |
| CC1(C)CNc2cc(NC(=O)c3cccnc3NCc3ccncc3)ccc21 [Motesanib] | 0.999 ± 0.075 | 1.03 ± 0.077 | 1 ± 0.077 | 1 ± 0.043 | 0.992 ± 0.037 | 1.03 ± 0.064 | 0.955 ± 0.073 | 0.932 ± 0.046 | 0.872 ± 0.051 | 0.828 ± 0.019 | 0.779 ± 0.065 |
| CC(=O)Nc1cccc(-n2c(=O)n(C3CC3)c(=O)c3c(Nc4ccc(I)cc4F)n(C)c(=O)c(C)c32)c1 [Trametinib] | 1.05 ± 0.081 | 0.991 ± 0.036 | 0.918 ± 0.066 | 0.941 ± 0.051 | 0.789 ± 0.021 | 0.766 ± 0.013 | 0.73 ± 0.031 | 0.661 ± 0.018 | 0.638 ± 0.029 | 0.628 ± 0.033 | 0.611 ± 0.031 |
